SMILES strings stand for the structures. “Also recorded” adds a separate entry of the source.

Assay [1] concerns NF-κB or Iκ-Bα phosphorylation. Nature of the assay: NF-κB and IκBα phosphorylation in LPS-treated macrophages (Western blot). Type of assay: cell-based, C57BL/6J mice. Particulars: compounds 30 min prior to 1 h LPS. The protocol: Macrophages were incubated with the compounds for 30 min prior to the addition of 10 ng/mL LPS for 24 h. Protein levels for COX-2 and NOS2 were detected in LPS-stimulated macrophages. As previously described, 10 µg of total protein was assessed. The primary antibodies were developed and characterized as previously described: for COX-2, mouse monoclonal antibody anti-COX-2 (clone COX-214, 1/5000); for NOS2, rabbit polyclonal antibody anti-NOS2 (dilution1/2000 [33]). Antibodies anti-phospho-NF-κB (3033S), phospho-IκBα (9246S), and total IκBα (4814S) were from Cell Signaling Technologies (Danvers, MA, USA). Total NF-κB C-20 (sc-372) was from Santa Cruz Biotechnologies (Dallas, TX, USA), and mouse β-actin (dilution 1/10,000) (Sigma-Aldrich, A5441). Clarity™ western ECL substrate (Bio-Rad Laboratories 10-5061) was used according to the manufacturer’s instructions to reveal positive bands visualized using Bio-Rad ChemiDoc. For Bcl-2 and cleaved PARP-1, HCT116 cells were plated in 6-well plates (200,000 cells per well) for 24 h, and treated with compounds 1 and 2 at 10, 25, and 50 µM for 72 h. Supernatants and cells were collected and lysed using RIPA lysis buffer containing inhibitors of protease. Western blot of Bcl-2 and cleaved PARP-1 was performed using 25 µg of total protein with a rabbit polyclonal antibody anti-Bcl-2 (1/500) (Santa Cruz Biotechnology, sc-492), rabbit polyclonal antibody anti-PARP-1 (1/1000) (Santa Cruz Biotechnology, sc-7150), and mouse anti-β-actin (dilution 1/10,000) (Sigma-Aldrich, A5441).
F i g u re S4: Phosphorylation of NF-κB and IκBα kinetics in LPS-treated macrophages. (A) Kinetics of the phosphorylation of NF-κB and IκBα in macrophages. Cells were treated with 10 ng/mL LPS for different time points and protein expression was assessed by western blot. We determine that 1 hour incubation with LPS is efficient for the phosphorylation of NF-κB and IκBα phosphorylation; (B) Macrophages were treated with the tested compounds for 30 minutes prior to 1 hour-treatment with LPS. β-actin was used as a loading control and densitometric analysis was done ImageJ Software (NIH, MA). Data are ex pressed as fold of LPS-treated macrophages and represented as mean ± S.E.M. of 3 different experiments, *p<0.05 versus LPS (One-w a y Anova followed by the Dunnett’s test). […]
(A western blot detects proteins with antibodies after separation by electrophoresis.)

Assay [2] relates to IL-6. Description: IL-6 release in LPS-treated macrophages (BMDM). As to conditions: for decrease of IL-6 production: 50 µM, LPS 24 h; for IC50: Mus musculus, Macrophage, compounds 30 min prior to 10 ng/mL LPS for 24 h. Format: cell-based, C57BL/6J mice. As for the experimental part: C57BL/6J (10–15 weeks old) male mice were obtained from the animal care facility at the American University of Beirut. All animal procedures were performed following the recommendations of the IACUC (Institutional Animal Care and Use Committee approval 16-09-M379). BMDMs were prepared and characterized as described previously by our group. BMDMs were isolated from C57BL/6J mice by flushing the femur and tibia with RPMI-1640 culture media (Sigma-Aldrich R7388), and cells were collected and centrifuged at 300× g for 5 min. The supernatant was discarded, and the pellet was resuspended in 2 mL red blood lysis 10% (Sigma-Aldrich R7767) medium in PBS and incubated for 5 min at room temperature. After diluting the suspension of cells with 5 mL of RPMI containing 10% FBS and 1% penicillin–streptomycin, cells were centrifuged at 300× g for 5 min, and the cell pellet was resuspended in RPMI media containing 10% FBS supplemented with 15% L929-conditioned medium containing macrophage-colony stimulating factor (M-CSF1) and plated on […]. Cells were allowed to proliferate and differentiate for 5–6 days. Cells were harvested, washed, and allowed to adhere overnight in RPMI containing 10% FBS for treatment. Cells were previously characterized by flow cytometry as macrophages using this method. […] Cells were plated at 0.8 × 10^6 cells per 3.8 cm^2 well [27].
BMDMs were then treated with different concentrations of the benzofuran and dihydrobenzofuran derivatives for 30 min prior to the addition of 10 ng/mL LPS for 24 h. […] The supernatants were assessed for IL-6, PGE2, CCL2, and nitrite, the stable derivative of NO, as described previously.
(§1) IL-6, CCL2, nitrite (for NO), and PGE2 concentrations from 3–5 independent experiments were expressed as percentage of LPS alone and as mean ± SEM. COX activity was determined as percentage of PGE2 produced from exogenous arachidonic acid. Curve fitting and calculation of IC50 values were performed using GraphPad Prism (version 9.5.1 Software, La Jolla, CA, USA).

Assay [3] addresses T1, COX-1 (Homo sapiens, UniProt P23219).
T1 construct: expressed in transfected cells
Description: COX-1 activity: PGE2 from exogenous arachidonic acid in HEK-293 cells overexpressing COX-1. Type of assay: cell-based. As to conditions: for effect on COX-1 activity: 10 µM for compounds 1, 7, 9, 50 µM for others, 10 µM arachidonic acid; for IC50: HEK-293 overexpressing COX-1, compounds 30 min prior to 10 µM arachidonic acid. As for the experimental part:
Figure 3 Effects of the fluorinated benzofuran and dihydrobenzofuran on COX-1 and COX-2 activities. (A) Illustration for COX-1 activity assay. HEK-293 cells stably overexpressing COX-1 are treated with the nine derivatives of benzofuran at concentrations of only 10 µM for compounds 1, 7, and 9, and 50 µM for the other compounds, 30 min prior to the addition of 10 µM arachidonic acid (AA). […] (B) COX-1 activity. […] Levels of PGE2 were very low in the absence of arachidonic acid (0.04 ± 0.01 ng/mL) and 104.3 ± 16.7 ng/mL for 10 µM AA. (C) Illustration for COX-2 activity determination. Macrophages are treated with 10 µM of aspirin (ASA) for 30 min to block basal COX activity, washed, and treated with 10 ng/mL LPS for 24 h to induce COX-2. Cells are then washed and incubated 30 min with 50 µM of the different compounds prior to the addition of 10 µM of AA. The produced PGE2 mainly reflects COX-2 activity. (D) COX-2 activity. Percentage of LPS-treated cells was calculated, and data are represented as mean ± SEM (n = 4); * p < 0.05 versus AA for COX-1 activity, and versus LPS + ASA + AA for COX-2 activity (one-way ANOVA followed by Dunnett’s test). […] Levels of PGE2 were very low in the absence of arachidonic acid (0.06 ± 0.01 ng/mL) and 71.7 ± 5.7 ng/mL for 10 µM AA.
COX-1 and COX-2 activities were performed as described previously in human embryonic kidney cell line (HEK-293) stably overexpressing COX-1 [19] and in macrophages, respectively. […] For both COX-1 and COX-2 assays, the benzofuran compounds were then added to the cells for 30 min prior to the incubation with 10 µM arachidonic acid for another 30 min. PGE2 was then measured using an enzyme immunoassay, as described previously.
as §1

T1 sequence (P23219 24-599): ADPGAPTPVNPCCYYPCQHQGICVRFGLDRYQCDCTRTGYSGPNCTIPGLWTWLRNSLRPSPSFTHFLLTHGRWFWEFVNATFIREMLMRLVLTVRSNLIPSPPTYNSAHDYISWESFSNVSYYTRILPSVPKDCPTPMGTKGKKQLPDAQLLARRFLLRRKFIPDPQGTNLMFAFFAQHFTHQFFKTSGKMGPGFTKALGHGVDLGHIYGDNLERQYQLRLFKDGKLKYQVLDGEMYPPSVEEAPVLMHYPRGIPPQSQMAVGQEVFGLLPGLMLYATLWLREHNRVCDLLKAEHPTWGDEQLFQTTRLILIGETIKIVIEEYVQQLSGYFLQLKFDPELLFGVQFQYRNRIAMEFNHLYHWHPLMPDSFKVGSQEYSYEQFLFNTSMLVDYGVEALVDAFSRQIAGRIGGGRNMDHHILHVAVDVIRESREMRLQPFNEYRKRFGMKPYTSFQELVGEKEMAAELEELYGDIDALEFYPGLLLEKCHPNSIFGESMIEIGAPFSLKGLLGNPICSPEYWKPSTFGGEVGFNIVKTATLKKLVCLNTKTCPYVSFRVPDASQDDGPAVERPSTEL

Regarding `COC(=O)/C=C1/Oc2ccc(Br)cc2C1(F)F` [Compound 1], the “effect on NF-κB or Iκ-Bα phosphorylation induced by LPS” value (“effect … by LPS” below) in assay [1] is “did not modify”.

As to `O=C(O)/C=C1/Oc2ccc(Br)cc2C1(F)F` [Compound 2], in assay [1], the “effect … by LPS” value is reported as “did not modify”. In assay [2], the “decrease of IL-6 production” value was “more than 50%” and the IC50 turned out to be 1.23 µM.

`O=C(O)/C=C1\Oc2ccc(Br)cc2C1(F)F` [Compound 3]: in assay [1], the “effect … by LPS” value is “did not modify”. In addition, in assay [3], the “effect on COX-1 activity” value was “significantly reduced” and it took 7.9 µM to reach half-maximal inhibition (IC50). Besides, in assay [2], the “decrease of IL-6 production” value was “more than 50%” and half-maximal inhibition (IC50) was put at 5.21 µM.

Take `O=C(O)Cc1oc2ccc(-c3ccccc3)cc2c1F` [Compound 5]: the “effect on COX-1 activity” value in assay [3] is recorded as “direct inhibitory effect”.

As for `C=C(C)c1ccc2oc(CC(=O)O)c(F)c2c1` [Compound 6], in assay [3], the “effect on COX-1 activity” value is given as “significantly reduced; also recorded: direct inhibitory effect” and the IC50 was 5 µM.

Consider `COC(=O)CC1(O)Oc2ccc(Br)cc2C1(F)F` (stereo not shown) [Compound 8], for which the “effect … by LPS” value in assay [1] is listed as “did not modify”. In addition, the “effect on COX-1 activity” value in assay [3] is “without any effect”. Moreover, in assay [2], the “decrease of IL-6 production” value is reported as “more than 50%” and the midpoint of inhibition, the IC50, lay at 9.04 µM.

For orientation: IC50 means the concentration at which inhibition is half-maximal. Read a high IC50 as lower potency.
